Activity calls are given as the source filed them. The rule behind the calls is not given here.
Assays:
[1] = Inhibition of ENaC in human Primary bronchial epithelial cell; type: cell-based
[2] = test system: Ovis aries; test: (§1) Mucociliary clearance activity in sheep mucociliary clearance model assessed as effective dose administered as inhalation pre-administered for 4 to 6 hrs followed by aerosolized technetium-labeled sulfur colloid (99mTc-Sc , 20 mCi) addition by Scintigraphic imaging based analysis; type: functional; details: time 4-6 hrs
[3] = Plasma protein binding in rat; type: ADME, cell-free; details: read-out: PPB (converted)
[4] = test system: Cytochrome P450; test: Inhibition of CYP450 (unknown origin); type: ADME, protein assay; details: human
[5] = target: Potassium voltage-gated channel subfamily A member 5 (Homo sapiens) (UniProt P22460); test: Inhibition of Kv1.5 (unknown origin) at 10 uM by automated patch clamp method
[6] = target: Sodium channel protein type 5 subunit alpha (Homo sapiens, UniProt Q14524); test: Inhibition of Nav1.5 (unknown origin) 10 uM by automated patch clamp method
[7] = Mutagenicity in Salmonella typhimurium strains by Ames test; type: toxicity; details: salmonella enterica subsp. enterica serovar typhimurium
[8] = target: Voltage-dependent L-type calcium channel subunit alpha-1C (Homo sapiens, UniProt Q13936); test: Inhibition of Cav1.2 (unknown origin) at 10 uM by automated patch clamp method
[9] = Plasma protein binding in dog; type: ADME, cell-free, Canis lupus familiaris; details: read-out: PPB (converted)
[10] = Drug uptake in male Sprague-Dawley rat Bronchoalveolar lavage assessed as decrease BAL level at 0.3 mg/kg, IT measured after 6 hrs by LC-MS/MS analysis relative to control; type: ADME, organism-based; details: in vivo, other
[11] = target: Voltage-gated inwardly rectifying potassium channel KCNH2 (Homo sapiens, UniProt Q12809); test: Inhibition of human ERG at 30 uM by automated patch clamp method; type: toxicity
[12] = Plasma protein binding in human; type: ADME, cell-free; details: read-out: PPB (converted)
[13] = Lipophilicity, log D of the compound; type: physicochemical; details: octanol/water
[14] = Drug uptake in male Sprague-Dawley rat Bronchoalveolar lavage assessed as fold decrease BAL level at 0.3 mg/kg, IT measured upto 6 hrs by LC-MS/MS analysis; type: ADME, organism-based; details: in vivo, other
[15] = test system: Ovis aries; test: as §1, with “assessed as improvement in lung residence time” for “effective dose”; type: functional, organism-based; details: time 4-6 hrs
[16] = Drug uptake in male Sprague-Dawley rat lung at 0.3 mg/kg, IT measured upto 6 hrs by LC-MS/MS analysis; type: ADME, organism-based; details: in vivo, other

Voltage-dependent L-type calcium channel subunit alpha-1C, sequence (Q13936 whole entry): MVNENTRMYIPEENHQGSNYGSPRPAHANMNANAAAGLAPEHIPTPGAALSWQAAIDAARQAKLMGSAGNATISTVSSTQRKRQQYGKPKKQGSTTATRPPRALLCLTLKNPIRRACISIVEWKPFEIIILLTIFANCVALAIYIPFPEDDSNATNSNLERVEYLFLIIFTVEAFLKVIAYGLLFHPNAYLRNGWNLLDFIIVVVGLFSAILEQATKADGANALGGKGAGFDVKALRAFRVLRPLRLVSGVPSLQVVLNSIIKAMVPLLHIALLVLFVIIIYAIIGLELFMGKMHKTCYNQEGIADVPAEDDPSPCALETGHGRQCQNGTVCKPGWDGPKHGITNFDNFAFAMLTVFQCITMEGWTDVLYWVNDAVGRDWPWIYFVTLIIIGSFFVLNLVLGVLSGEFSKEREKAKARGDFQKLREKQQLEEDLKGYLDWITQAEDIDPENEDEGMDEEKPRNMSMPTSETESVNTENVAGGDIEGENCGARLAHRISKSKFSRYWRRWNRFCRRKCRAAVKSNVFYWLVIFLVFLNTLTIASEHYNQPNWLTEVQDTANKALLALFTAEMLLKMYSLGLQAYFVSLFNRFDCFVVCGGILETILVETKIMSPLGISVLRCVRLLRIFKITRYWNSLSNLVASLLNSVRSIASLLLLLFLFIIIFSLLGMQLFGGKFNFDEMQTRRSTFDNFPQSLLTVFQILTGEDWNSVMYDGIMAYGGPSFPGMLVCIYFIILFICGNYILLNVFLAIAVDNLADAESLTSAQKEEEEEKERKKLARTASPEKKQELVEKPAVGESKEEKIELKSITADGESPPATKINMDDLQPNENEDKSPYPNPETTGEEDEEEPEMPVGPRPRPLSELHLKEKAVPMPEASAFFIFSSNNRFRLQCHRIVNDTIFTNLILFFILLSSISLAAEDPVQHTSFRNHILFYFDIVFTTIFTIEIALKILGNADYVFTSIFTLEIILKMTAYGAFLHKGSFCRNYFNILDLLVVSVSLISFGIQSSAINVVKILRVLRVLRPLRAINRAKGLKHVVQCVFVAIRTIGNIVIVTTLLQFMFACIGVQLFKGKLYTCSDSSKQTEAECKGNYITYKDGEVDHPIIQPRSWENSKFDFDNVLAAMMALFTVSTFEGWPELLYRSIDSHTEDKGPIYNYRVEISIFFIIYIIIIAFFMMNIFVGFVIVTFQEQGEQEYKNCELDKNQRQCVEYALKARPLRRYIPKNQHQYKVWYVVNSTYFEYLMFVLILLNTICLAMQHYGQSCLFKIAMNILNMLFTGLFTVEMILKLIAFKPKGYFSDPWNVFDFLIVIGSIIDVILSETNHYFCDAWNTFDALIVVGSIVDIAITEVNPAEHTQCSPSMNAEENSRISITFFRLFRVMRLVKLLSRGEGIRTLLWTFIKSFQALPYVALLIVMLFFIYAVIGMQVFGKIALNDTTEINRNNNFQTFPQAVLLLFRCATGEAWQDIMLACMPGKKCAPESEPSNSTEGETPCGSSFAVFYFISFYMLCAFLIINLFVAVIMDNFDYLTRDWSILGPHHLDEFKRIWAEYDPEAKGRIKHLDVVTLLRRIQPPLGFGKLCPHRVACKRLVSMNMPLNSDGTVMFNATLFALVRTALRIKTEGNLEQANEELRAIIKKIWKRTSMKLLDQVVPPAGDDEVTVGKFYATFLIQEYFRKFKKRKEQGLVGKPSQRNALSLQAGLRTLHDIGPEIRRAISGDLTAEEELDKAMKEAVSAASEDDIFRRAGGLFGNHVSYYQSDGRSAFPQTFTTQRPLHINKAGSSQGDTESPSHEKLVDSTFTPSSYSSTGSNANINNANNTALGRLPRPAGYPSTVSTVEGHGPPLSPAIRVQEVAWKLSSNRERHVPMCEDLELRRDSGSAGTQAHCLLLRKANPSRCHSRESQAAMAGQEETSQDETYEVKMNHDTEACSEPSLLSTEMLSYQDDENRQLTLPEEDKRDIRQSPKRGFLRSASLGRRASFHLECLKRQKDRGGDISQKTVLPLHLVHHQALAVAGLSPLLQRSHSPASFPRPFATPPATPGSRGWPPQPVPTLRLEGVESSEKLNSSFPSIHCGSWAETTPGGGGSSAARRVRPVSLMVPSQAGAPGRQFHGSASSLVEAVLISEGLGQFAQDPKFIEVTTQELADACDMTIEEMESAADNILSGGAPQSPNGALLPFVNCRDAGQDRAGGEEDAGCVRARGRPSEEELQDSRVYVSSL
Voltage-gated inwardly rectifying potassium channel KCNH2, sequence (Q12809 whole entry): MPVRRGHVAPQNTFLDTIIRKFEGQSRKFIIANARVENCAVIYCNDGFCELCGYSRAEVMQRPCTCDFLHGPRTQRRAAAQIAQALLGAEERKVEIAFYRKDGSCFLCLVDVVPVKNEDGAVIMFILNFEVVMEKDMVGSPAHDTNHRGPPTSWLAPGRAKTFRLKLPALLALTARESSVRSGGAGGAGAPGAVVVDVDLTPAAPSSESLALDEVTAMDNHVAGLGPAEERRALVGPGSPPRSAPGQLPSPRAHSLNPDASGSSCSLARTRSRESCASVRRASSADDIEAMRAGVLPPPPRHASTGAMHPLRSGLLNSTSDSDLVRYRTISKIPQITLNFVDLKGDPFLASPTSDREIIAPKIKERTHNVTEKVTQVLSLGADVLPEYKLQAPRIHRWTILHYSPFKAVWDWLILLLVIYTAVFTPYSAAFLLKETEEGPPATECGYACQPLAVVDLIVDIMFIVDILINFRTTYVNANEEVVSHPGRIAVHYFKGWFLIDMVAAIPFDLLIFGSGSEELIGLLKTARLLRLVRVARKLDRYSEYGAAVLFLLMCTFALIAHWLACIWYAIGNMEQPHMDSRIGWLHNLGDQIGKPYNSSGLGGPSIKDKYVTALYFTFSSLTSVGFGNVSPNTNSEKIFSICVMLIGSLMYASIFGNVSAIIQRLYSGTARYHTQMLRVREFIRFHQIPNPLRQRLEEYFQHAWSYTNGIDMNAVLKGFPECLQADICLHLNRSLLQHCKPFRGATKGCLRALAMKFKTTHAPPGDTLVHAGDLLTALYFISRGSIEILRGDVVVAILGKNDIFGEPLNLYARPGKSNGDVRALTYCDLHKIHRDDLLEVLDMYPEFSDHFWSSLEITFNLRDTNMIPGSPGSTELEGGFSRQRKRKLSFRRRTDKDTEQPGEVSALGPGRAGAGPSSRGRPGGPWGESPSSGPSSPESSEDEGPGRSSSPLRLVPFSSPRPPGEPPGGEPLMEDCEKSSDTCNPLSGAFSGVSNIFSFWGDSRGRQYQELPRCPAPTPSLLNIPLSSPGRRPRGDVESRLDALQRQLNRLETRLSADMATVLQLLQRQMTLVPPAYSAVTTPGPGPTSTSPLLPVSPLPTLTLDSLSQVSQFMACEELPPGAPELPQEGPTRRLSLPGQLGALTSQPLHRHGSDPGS
Potassium voltage-gated channel subfamily A member 5 (Homo sapiens), sequence (P22460 whole entry): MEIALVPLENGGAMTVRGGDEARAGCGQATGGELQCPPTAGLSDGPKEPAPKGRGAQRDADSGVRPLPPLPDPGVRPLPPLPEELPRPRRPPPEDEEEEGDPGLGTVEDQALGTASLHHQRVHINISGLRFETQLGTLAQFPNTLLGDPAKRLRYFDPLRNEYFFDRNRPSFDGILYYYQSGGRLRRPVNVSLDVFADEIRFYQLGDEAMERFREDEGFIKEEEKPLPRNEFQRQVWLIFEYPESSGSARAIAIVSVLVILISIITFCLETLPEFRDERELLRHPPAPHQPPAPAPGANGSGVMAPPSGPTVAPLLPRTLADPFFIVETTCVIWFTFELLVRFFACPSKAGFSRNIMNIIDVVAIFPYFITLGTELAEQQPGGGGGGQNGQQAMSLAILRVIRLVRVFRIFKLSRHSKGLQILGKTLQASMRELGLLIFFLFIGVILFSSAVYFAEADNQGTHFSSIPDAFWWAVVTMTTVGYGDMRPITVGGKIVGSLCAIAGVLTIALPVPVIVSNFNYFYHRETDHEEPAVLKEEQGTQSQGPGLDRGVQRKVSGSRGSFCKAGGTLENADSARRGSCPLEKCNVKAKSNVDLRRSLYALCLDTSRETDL

| SMILES | IC50 [1] | logD [13] | ED100 [2] | further results |
| --- | --- | --- | --- | --- |
| CCn1c(CNC(=O)c2nc3cc[nH]c3nc2N)[n+](CC)c2ccc(OCCN(C[C@H](O)[C@@H](O)[C@H](O)[C@H](O)CO)C[C@H](O)[C@@H](O)[C@H](O)[C@H](O)CO)cc21 | 51 nM | – | – | – |
| CCn1c(CNC(=O)c2nc3cc[nH]c3nc2N)[n+](CC)c2ccc(C(=O)NCCN3CCC(N(C[C@H](O)[C@@H](O)[C@H](O)[C@H](O)CO)C[C@H](O)[C@@H](O)[C@H](O)[C@H](O)CO)CC3)cc21.O=C(O)C(F)(F)F.O=C([O-])C(F)(F)F | 38 nM | – | 0.025 mg/kg | – |
| CCn1c(CNC(=O)c2nc3cc[nH]c3nc2N)[n+](CC)c2ccc(C(=O)N3CCC(N(C[C@H](O)[C@@H](O)[C@H](O)[C@H](O)CO)C[C@H](O)[C@@H](O)[C@H](O)[C@H](O)CO)CC3)cc21.O=C(O)C(F)(F)F.O=C([O-])C(F)(F)F | 57 nM | 2.8 | 0.009 mg/kg | fraction unbound [3]: 0.9; inhibition (INH) [4]: Not_active; inhibition [5]: inactive; inhibition (INH) [6]: Not_active; Activity [7]: Non-toxic; inhibition (INH) [8]: Not_active; fraction unbound [9]: 0.9; Drug uptake [10]: 13%; inhibition (INH) [11]: Not_active; fraction unbound [12]: 0.9; fold change (FC) [14]: 3 |
| CCn1c(CNC(=O)c2nc3ccn(C)c3nc2N)[n+](C)c2ccc(OC)cc21 | > 7700 nM | 0.8 | – | – |
| CCc1cnc(N)c(C(=O)NCc2n(CC)c3cc(OC)ccc3[n+]2C)n1 | 224 nM | 0.9 | – | – |
| CCn1c(CNC(=O)c2nc3cc[nH]c3nc2N)[n+](CC)c2ccc(OCCCN(C[C@H](O)[C@@H](O)[C@H](O)[C@H](O)CO)C[C@H](O)[C@@H](O)[C@H](O)[C@H](O)CO)cc21.O=C(O)C(F)(F)F.O=C([O-])C(F)(F)F | 22 nM | 1 | 0.019 mg/kg | – |
| CCn1c(CNC(=O)c2nc3cc[nH]c3nc2N)[n+](CC)c2ccc(C(=O)NCCCN(C[C@H](O)[C@@H](O)[C@H](O)[C@H](O)CO)C[C@H](O)[C@@H](O)[C@H](O)[C@H](O)CO)cc21.O=C(O)C(F)(F)F.O=C([O-])C(F)(F)F | 18 nM | 1 | 0.026 mg/kg | – |
| CCn1c(CNC(=O)c2nc3cc[nH]c3nc2N)[n+](CC)c2ccc(C(=O)NCCCN)cc21 | 15 nM | 0 | – | – |

Stronger by IC50 [1], values ahead:

| IC50 [1] | logD [13] | SMILES | ED100 [2] | further results |
| --- | --- | --- | --- | --- |
| 14 nM | 1 | CCn1c(CNC(=O)c2nc3cc[nH]c3nc2N)[n+](CC)c2ccc(OCCN)cc21 | – | – |
| 7.7 nM | 1 | CCn1c(CNC(=O)c2nc3cc[nH]c3nc2N)[n+](C)c2ccc(OC)cc21.O=C[O-] | 0.158 mg/kg | Activity [15]: Active; Drug uptake [16]: Active; fold change (FC) [14]: 50 |
| 2.5 nM | 0.9 | CCn1c(CNC(=O)c2nc3cc[nH]c3nc2N)[n+](CC)c2ccc(OC)cc21 | – | – |
| 7.2 nM | – | CCn1c(CNC(=O)c2nc3cc[nH]c3nc2N)[n+](CC)c2ccc(C(=O)NC3CCNCC3)cc21 | – | – |
| 11 nM | 0.6 | CCn1c(CNC(=O)c2nc3cc[nH]c3nc2N)[n+](CC)c2ccc(C(=O)N3CCC(N)CC3)cc21.Cl.[I-] | 0.025 mg/kg | Activity [15]: Active |
| 2 nM | 0.9 | CCn1c(CNC(=O)c2nc(Cl)cnc2N)[n+](C)c2ccc(OC)cc21 | – | – |
| 2.5 nM | – | CCn1c(CNC(=O)c2nc3cc[nH]c3nc2N)[n+](CC)c2ccc(OCCNC(=N)N)cc21 | – | – |
| 4 nM | < 1 | CCn1c(CNC(=O)c2nc(C)cnc2N)[n+](C)c2ccc(OC)cc21 | – | – |
| 3 nM | 0.8 | CCn1c(CNC(=O)c2nc(Br)cnc2N)[n+](C)c2ccc(OC)cc21.[I-] | > 0.101 mg/kg | Drug uptake [16]: Not_active; fold change (FC) [14]: 200 |
| 7 nM | 1.5 | CCn1c(CNC(=O)c2nc3cc[nH]c3nc2N)[n+](CC)c2ccc(OCCCN)cc21 | – | – |
| 10 nM | – | CCn1c(CNC(=O)c2nc3cc[nH]c3nc2N)[n+](CC)c2ccc(C(=O)NCCN3CCC(N)CC3)cc21 | – | – |
| 7.1 nM | 1 | CCn1c(CNC(=O)c2nc3cc[nH]c3nc2N)[n+](CC)c2ccc(C(=O)NC3CCN(C[C@H](O)[C@@H](O)[C@H](O)[C@H](O)CO)CC3)cc21.O=C(O)C(F)(F)F.O=C([O-])C(F)(F)F | 0.031 mg/kg | – |

Reference: ChEMBL document CHEMBL6120981, “Optimisation of a novel series of ENaC inhibitors, leading to the selection of the long-acting inhaled clinical candidate ETD001, a potential new treatment for cystic fibrosis” (Eur J Med Chem, 2025)
